Assay results from patent US20140024653A1, “COMPOSITIONS AND METHODS FOR TREATING CANCER USING PI3K INHIBITOR AND MEK INHIBITOR” (priority 2011, published 2014).
Like-named read-outs stand apart in the source and are kept apart here.

Key:
[1] = system: MCF7; assay: SRB cell growth assay, 72 h; type: cell-based, human
[2] = system: panel of 81 cancer cell lines; assay: SRB cell growth assay, 72 h, cell line panel; type: cell-based, human
[3] = system: human primary colon tumors CR-LRB-013P; assay: antitumor activity against subcutaneous CR-LRB-013P xenografts; type: in vivo
Protocol: The human primary colon carcinoma CR-LRB-013P tumor model was established by implanting (SC) small tumor fragments and was maintained in SCID female mice using serial passages.
Treatments were administered on measurable tumors. […] Mice were checked daily, and adverse clinical reactions noted.
Animal body weights included the tumor weight.
The primary efficacy end points are ΔT/ΔC, percent median regression, partial and complete regressions (PR and CR). Statistical analyses were performed on SAS system release 8.2 for SUN4 via Everstat V5 software and SAS 9.2 software. A probability less than 5% (p<0.05) was considered as significant.

[4] = system: COLO678; assay: SRB cell growth assay, 72 h; type: cell-based; settings: Homo sapiens, COLO-678, non-sensitive, z score >1.5
Protocol: (§1) Cell growth and treatment were performed in 96-well microtitre plates CELLSTAR® (Greiner Bio-One, Germany). Cells harvested from exponential phase cultures by trypsinization were plated in 150 μl of media at optimal seeding densities. The optimal seeding densities for each cell line were determined to ensure exponential growth for the duration of the experiment. All cells growing without anticancer agents were sub-confluent by the end of the treatment as determined by visual inspection.
(§2) 150 μl of cells, after a 24-hour pre-growth period, were treated by mixing with 50 μl of the compound containing media (resulting in a final DMSO concentration of 0.1%). The cells were allowed to grow at 37° C. for 72 hours. In addition, all experiments contained a few plates with cells that were processed for measurement immediately after the 24 hours recovery period. These plates contained information about the cell number that existed before treatment, at time zero, and served to calculate the cytotoxicity.
(§3) After treatment, cells were precipitated by addition of 10% TCA. Prior to fixation, the media was aspirated as described. After an hour of incubation at 4° C., the plates were washed two times with 400 μl of deionized water. Cells were then stained with 100 μl of a 0.08% wt/v SRB. The plates were allowed to sit for at least 30 min. and washed six times with 1% acetic acid to remove unbound stain. The plates were left to dry at room temperature and bound SRB was solubilized with 100 μl of 10 mM Tris base. Measurement of optical density was performed at 560 nm on a Victor 2 plate reader (Perkin Elmer, Germany). The SRB values for A375 and H460 cell lines were near to saturation (2.5 OD units) due to the high protein content of these cells, but not cell confluence. The measurements for these cells were performed at 520 nm instead of 560 nm.
(§4) Using these measurements, cellular responses can be calculated for incomplete inhibition of cell growth (GI), complete inhibition of cell growth (T GI) and net loss of cells (LC) due to compound activity. […] This is the drug concentration causing a 50% reduction compared to the net protein increase in control cells during the drug incubation period. In other words, GI50 is IC50 corrected for time zero. Similar to IC90, calculated GI90 values are also reported for all compounds tested. TGI was calculated from Ti=Tz. […] It was calculated as 100×[(Ti−Tz)/Tz]=−50. However, due to 72 hours treatment, low cell seeding density was required and LC50 could rarely be achieved.

[5] = system: resting Peripheral Blood Mononuclear Cells, PBMC; assay: SRB cell growth assay, 72 h, non-proliferating cells; type: cell-based
Protocol: Cell lines were selected to represent 17 different indications with many different genetic variations and biochemical characteristics. In addition, the study included resting Peripheral Blood Mononuclear Cells, PBMC, as a model for non-proliferating cells.
Cell growth and treatment were performed in 96-well microtitre plates CELLSTAR® (Greiner Bio-One, Germany). Cells harvested from exponential phase cultures by trypsinization were plated in 150 μl of media at optimal seeding densities. The optimal seeding densities for each cell line were determined to ensure exponential growth for the duration of the experiment. All cells growing without anticancer agents were sub-confluent by the end of the treatment as determined by visual inspection. […]
After treatment, cells were precipitated by addition of 10% TCA. […] Measurement of optical density was performed at 560 nm on a Victor 2 plate reader (Perkin Elmer, Germany). […]
Using these measurements, cellular responses can be calculated for incomplete inhibition of cell growth (GI), complete inhibition of cell growth (T GI) and net loss of cells (LC) due to compound activity. […] Similar to IC90, calculated GI90 values are also reported for all compounds tested. TGI was calculated from Ti=Tz. […] It was calculated as 100×[(Ti−Tz)/Tz]=−50. […]

[6] = system: DU145; assay: SRB cell growth assay, 72 h; type: cell-based, human; settings: single agent
[7] = system: human colon carcinoma HCT 116; assay: HCT116 tumor growth in fluorescence molecular tomography study; type: in vivo, SCID mice; settings: (2b) 20 mg/kg oral daily day 11 to day 17; NS
[8] = system: SKBR3; assay: SRB cell growth assay, 72 h; type: cell-based, human
[9] = system: A549; assay: SRB cell growth assay, 72 h; type: cell-based, human
[10] = system: DLD1; assay: SRB cell growth assay, 72 h; type: cell-based, human; settings: single agent
[11] = system: PANC1; assay: SRB cell growth assay, 72 h; type: cell-based, human; settings: single agent
[12] = system: EJ28; assay: SRB cell growth assay, 72 h; type: cell-based, human; settings: single agent
[13] = system: human colon carcinoma HCT 116; settings: for tolerability: as single agents
Protocol: Mice were over 18 g at start of treatment after an acclimatization time of at least 5 days. […] The mice were housed on a 12 hours light/dark cycle.
Human colon carcinoma HCT 116 cells were purchased at American Type Culture Collection [(ATCC), Rockville, Md., USA). The HCT 116 cells were cultured in Dulbecco's modified Eagle's medium (DMEM) (Invitrogen).
The animals required to begin a given experiment were pooled and implanted monolaterally on day 0. Treatments were administered on measurable tumors. The solid tumors were allowed to grow to the desired volume range (animals with tumors not in the desired range were excluded). The mice were then pooled and unselectively distributed to the various treatment and control groups. […] The dosages are expressed in mg/kg, based on the body weight at start of therapy. Mice were checked daily, and adverse clinical reactions noted. Each group of mice was weighed as a whole daily until the weight nadir was reached. Then, groups were weighed once to thrice weekly until the end of the experiment. Tumors were measured with a caliper 2 to 3 times weekly until final sacrifice for sampling time, tumor reached 2000 mm^3 or until the animal died (whichever comes first). Solid tumor volumes were estimated from two-dimensional tumor measurements and calculated according to the following equation:
Changes in tumor volume for each treated (T) and control (C) group were calculated for each tumor by subtracting the tumor volume on the day of first treatment (staging day) from the tumor volume on the specified observation day. The median ΔT is calculated for the treated group, and the median ΔC is calculated for the control group. Then the ratio ΔT/ΔC is calculated and expressed as a percentage. The dose is considered as therapeutically active when ΔT/ΔC is lower than 40% and very active when ΔT/ΔC is lower than 10%.
The percent of tumor regression is defined as the % of tumor volume decrease in the treated group at a specified observation day compared to its volume on the first day of treatment. At a specific time point and for each animal, % regression is calculated. The median % regression is then calculated for the group using the following equation:
Partial regression: Regressions are defined as partial if the tumor volume decreases to 50% of the tumor volume at the start of treatment.
Complete regression: The CR is achieved when tumor volume=0 mm^3 (CR is considered when tumor volume cannot be recorded).

[14] = system: A673; assay: SRB cell growth assay, 72 h; type: cell-based, human; settings: single agent
[15] = system: BT20; assay: SRB cell growth assay, 72 h; type: cell-based, human; settings: single agent
[16] = system: MDAMB468; assay: SRB cell growth assay, 72 h; type: cell-based, human; settings: Homo sapiens, MDA-MB-468, most sensitive, z-score <−1.5
Protocol: as §1, §2, §3, §4

[17] = system: HCT116; assay: SRB cell growth assay, 72 h; type: cell-based, human
[18] = (2b) 20 mg/kg PO daily days 33-50
[19] = study 1, (2b) 30 mg/kg PO daily days 11-18
[20] = study 2, (2b) 20 mg/kg PO daily days 11-18
[21] = study 4, (2b) 20 mg/kg PO daily days 11-20

CCn1c(=O)c(-c2ccn[nH]2)cc2c(C)nc(N)nc21 [Compound (2b), 2-amino-8-ethyl-4-methyl-6-(1H-pyrazol-5-yl)pyrido[2,3-d]pyrimidin-7(8H)-one]
GI50 ([1]; Homo sapiens): 1.6 µM
z-score MSC0765 ([1]; single agent): 0.30
GI50 ([2]; Homo sapiens, all 81 cell lines, log 10-transformed data): 1.3 to 1.4 µM
differences in activity between sensitive and insensitive cell lines ([2]; panel): 10-20 fold
Average body weight change in % per mouse at nadir [3, 18]: −5.2 (50) %
Drug death [3, 18]: 0/7
Regressions Complete [3, 18]: 0/7
Regressions Partial [3, 18]: 0/7
tolerability ([3]; as single agents or used in combination): tolerated, inducing some BWL but not reaching toxicity
GI50 [4]: > 4 µM
activity in resting (arrested) PBMC [5]: no activity
z-score MSC0765 [6]: −0.05
ΔT/ΔC at the end of study [7]: 80%
GI50 ([8]; Homo sapiens, SK-BR-3, most sensitive, z-score <−1.5): < 0.5 µM
sensitivity ([8]; single agent): very sensitive
z-score MSC0765 ([8]; single agent): −2.18
GI50 ([9]; Homo sapiens): 1.15 µM
z-score MSC0765 ([9]; single agent): −0.20
z-score MSC0765 [10]: 0.81
z-score MSC0765 [11]: 1.16
z-score MSC0765 [12]: 1.25
Average body weight change in % per mouse at nadir [13, 19]: −6.7 (18) %
Drug death [13, 19]: 0/7
Median ΔT/ΔC in % day 18 [13, 19]: 77%
Regressions Complete [13, 19]: 0/7
Regressions Partial [13, 19]: 1/7
Average body weight change in % per mouse at nadir [13, 20]: −3.7 (15) %
Drug death [13, 20]: 0/7
Median ΔT/ΔC in % day 18 [13, 20]: 71%
Regressions Complete [13, 20]: 0/7
Regressions Partial [13, 20]: 0/7
tolerability ([13]; study 2): well-tolerated, inducing minimal BWL
Average body weight change in % per mouse at nadir [13, 21]: −4.8 (20) %
Drug death [13, 21]: 0/10
Regressions Complete [13, 21]: 0/10
Regressions Partial [13, 21]: 0/10
tolerability ([13]; study 4): well-tolerated, inducing minimal BWL
z-score MSC0765 [14]: 0.96
activity (cell growth inhibition) ([14]; up to 50 μM): non-sensitive
z-score MSC0765 [15]: 0.32
GI50 [16]: < 0.5 µM
GI50 ([17]; Homo sapiens, HCT-116, non-sensitive, z score >1.5): > 4 µM
z-score MSC0765 ([17]; single agent): 1.90
